Patent publication US10123993B2, “Cyclic ureas as inhibitors of rock” (BRISTOL-MYERS SQUIBB COMPANY, priority 2015, dated 2018)

target: ROCK2 (Homo sapiens, UniProt O75116); assay: ROCK2 kinase inhibition assay (Caliper LABCHIP, FITC peptide substrate); assay type: biochemical; conditions: 5 μM ATP, 1.5 μM peptide substrate; value ranges
Outline: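 Rho kinase with 5 μM ATP and 1.5 μM FITC-AHA-AKRRRLSSLRA-OH peptide in HEPES pH 7.5, 20 mM MgCl2, 0.015% Brij-35, 4 mM DTT, DMSO <2%. EDTA stop; phospho and non-phospho peptide separated on LabChip. IC50 from dose-response fit.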

Sequence of ROCK2 (O75116 whole entry, species assumed): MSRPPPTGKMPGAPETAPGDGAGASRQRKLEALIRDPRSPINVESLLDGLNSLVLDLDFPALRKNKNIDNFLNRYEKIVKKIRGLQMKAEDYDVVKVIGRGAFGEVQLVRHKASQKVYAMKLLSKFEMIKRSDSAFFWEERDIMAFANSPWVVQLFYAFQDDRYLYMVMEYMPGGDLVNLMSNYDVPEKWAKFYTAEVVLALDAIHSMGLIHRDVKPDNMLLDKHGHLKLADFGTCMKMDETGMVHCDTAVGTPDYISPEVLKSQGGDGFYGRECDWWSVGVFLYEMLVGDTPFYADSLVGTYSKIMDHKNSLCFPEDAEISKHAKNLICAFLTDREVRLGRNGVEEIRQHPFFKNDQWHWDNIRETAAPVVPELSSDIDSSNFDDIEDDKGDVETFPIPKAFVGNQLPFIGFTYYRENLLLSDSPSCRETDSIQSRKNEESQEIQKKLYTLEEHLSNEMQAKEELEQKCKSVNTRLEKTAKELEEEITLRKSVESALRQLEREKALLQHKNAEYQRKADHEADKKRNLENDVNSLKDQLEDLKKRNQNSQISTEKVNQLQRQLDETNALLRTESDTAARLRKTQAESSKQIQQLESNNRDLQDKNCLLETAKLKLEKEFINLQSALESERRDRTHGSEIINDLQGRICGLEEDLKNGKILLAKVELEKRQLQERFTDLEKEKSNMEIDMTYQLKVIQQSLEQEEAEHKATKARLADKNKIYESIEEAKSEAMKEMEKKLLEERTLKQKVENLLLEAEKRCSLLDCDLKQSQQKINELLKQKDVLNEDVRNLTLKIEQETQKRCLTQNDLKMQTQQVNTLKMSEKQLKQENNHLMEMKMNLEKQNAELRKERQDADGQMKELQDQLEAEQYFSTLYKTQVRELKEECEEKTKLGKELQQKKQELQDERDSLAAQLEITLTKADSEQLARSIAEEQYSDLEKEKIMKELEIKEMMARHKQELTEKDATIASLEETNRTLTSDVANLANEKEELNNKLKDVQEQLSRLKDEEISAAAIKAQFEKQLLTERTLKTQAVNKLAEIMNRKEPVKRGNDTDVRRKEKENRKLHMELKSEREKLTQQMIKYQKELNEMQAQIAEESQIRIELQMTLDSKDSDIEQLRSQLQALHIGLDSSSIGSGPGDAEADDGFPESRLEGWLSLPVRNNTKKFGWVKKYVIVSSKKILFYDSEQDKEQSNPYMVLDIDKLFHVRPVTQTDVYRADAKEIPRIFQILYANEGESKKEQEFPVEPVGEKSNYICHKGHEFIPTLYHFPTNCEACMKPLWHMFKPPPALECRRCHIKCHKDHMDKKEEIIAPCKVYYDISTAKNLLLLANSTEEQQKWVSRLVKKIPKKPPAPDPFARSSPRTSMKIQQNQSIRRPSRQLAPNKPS

| SMILES | IC50 [nM] |
| --- | --- |
| CC(C)COc1cccc(CN2CCN(c3ccc(-c4cn[nH]c4)c(F)c3)C2=O)c1 [Example 443, 1-(3-fluoro-4-(1H-pyrazol-4-yl)phenyl)-3-(3-isobutoxybenzyl)imidazolidin-2-one] | 2.1 to 20 |
| CC(C)COc1cccc(CN2CCN(c3ccc(-c4cn[nH]c4)cn3)C2=O)c1 [Example 444, 1-(5-(1H-pyrazol-4-yl)pyridin-2-yl)-3-(3-isobutoxybenzyl)imidazolidin-2-one] | 20.1 to 200 |
| COc1cccc(CN2CCN(c3ccc(-c4cn[nH]c4)cn3)C2=O)c1 [Example 446, 1-(5-(1H-pyrazol-4-yl)pyridin-2-yl)-3-(3-methoxybenzyl)imidazolidin-2-one] | 2.1 to 20 |
| COc1cc(CN2CCN(c3cc(F)c(-c4cn[nH]c4)cc3F)C2=O)ccc1F [Example 449, 1-(2,5-difluoro-4-(1H-pyrazol-4-yl)phenyl)-3-(4-fluoro-3-methobenzyl)imidazolidin-2-one] | 20.1 to 200 |
| COc1cccc(CN2C(=O)N(c3ccc(-c4cn[nH]c4)cn3)CC2(C)C)c1 [Example 451, 1-(5-(1H-pyrazol-4-yl)pyridin-2-yl)-3-(3-methoxybenzyl)-4,4-dimethylimidazolidin-2-one] | < 2 |
| CC1(C)CN(c2ccc(-c3cn[nH]c3)cn2)C(=O)N1Cc1cccc(OCC2CC2)c1 [Example 452, 1-(5-(1H-pyrazol-4-yl)pyridin-2-yl)-3-(3-(cyclopropylmethoxy)benzyl)-4,4-dimethylimidazolidin-2-one] | 2.1 to 20 |
| CCc1cc(-n2ccn(Cc3cccc(OC)c3)c2=O)ccc1-c1cn[nH]c1 [Example 453, 1-(3-ethyl-4-(1H-pyrazol-4-yl)phenyl)-3-(3-methoxybenzyl)-1H-imidazol-2(3H)-one] | 20.1 to 200 |
| CCc1cc(-n2ccn(Cc3cc(F)cc(OC)c3)c2=O)ccc1-c1cn[nH]c1 [Example 454, 1-(3-ethyl-4-(1H-pyrazol-4-yl)phenyl)-3-(3-fluoro-5-methoxybenzyl)-1H-imidazol-2(3H)-one] | 20.1 to 200 |
| COc1cc(F)cc(CN2CCN(c3cc(C)c(-c4cn[nH]c4)cn3)C2=O)c1 [Example 464, 1-(3-fluoro-5-methoxybenzyl)-3-(4-methyl-5-(1H-pyrazol-4-yl)pyridin-2-yl)imidazolidin-2-one] | 20.1 to 200 |
| COc1cccc(CN2CCN(c3cc(C)c(-c4cn[nH]c4)cn3)C2=O)c1 [Example 465, 1-(3-methoxybenzyl)-3-(4-methyl-5-(1H-pyrazol-4-yl)pyridin-2-yl)imidazolidin-2-one] | 20.1 to 200 |
| COc1cccc(CN2CCN(c3ccc(-c4cn[nH]c4)c(OC)n3)C2=O)c1 [Example 466, 1-(6-methoxy-5-(1H-pyrazol-4-yl)pyridin-2-yl)-3-(3-methoxybenzyl)imidazolidin-2-one] | < 2 |
| COc1cc(F)cc(CN2CCN(c3ccc(-c4cn[nH]c4)c(OC)n3)C2=O)c1 [Example 467, 1-(3-fluoro-5-methoxybenzyl)-3-(6-methoxy-5-(1H-pyrazol-4-yl)pyridin-2-yl)imidazolidin-2-one] | < 2 |
| COc1cccc(CN2CCN(c3ccc(-c4cn[nH]c4)c(C4CC4)c3)C2=O)c1 [Example 468, 1-(3-cyclopropyl-4-(1H-pyrazol-4-yl)phenyl)-3-(3-methoxybenzyl)imidazolidin-2-one] | 20.1 to 200 |
| COc1cc(F)cc(CN2CCN(c3ccc(-c4cn[nH]c4)c(C4CC4)c3)C2=O)c1 [Example 469, 1-(3-cyclopropyl-4-(1H-pyrazol-4-yl)phenyl)-3-(3-fluoro-5-methoxybenzyl)imidazolidin-2-one] | 20.1 to 200 |
| COc1cc(F)cc(CN2CCN(c3cc(OC)c(-c4cn[nH]c4)cn3)C2=O)c1 [Example 472, 1-(3-fluoro-5-methoxybenzyl)-3-(4-methoxy-5-(1H-pyrazol-4-yl)pyridin-2-yl)imidazolidin-2-one] | 2.1 to 20 |
| COc1nc(N2CCN(Cc3cccc(OCC4CC4)c3)C2=O)ccc1-c1cn[nH]c1 [Example 475, 1-(3-(cyclopropylmethoxy)benzyl)-3-(6-methoxy-5-(1H-pyrazol-4-yl)pyridin-2-yl)imidazolidin-2-one] | < 2 |
| O=C1N(c2ccc(-c3cn[nH]c3)cc2)C[C@@H](CO)N1Cc1cccc(OCC2CC2)c1 [Example 476, (S)-1-(4-(1H-pyrazol-4-yl)phenyl)-3-(3-(cyclopropylmethoxy)benzyl)-4-(hydroxymethyl)imidazolidin-2-one] | 2.1 to 20 |
| COc1cc(F)cc(Cn2ccn(-c3ccc(-c4cn[nH]c4)c(OC)n3)c2=O)c1 [Example 478, 1-(3-fluoro-5-methoxybenzyl)-3-(6-methoxy-5-(1H-pyrazol-4-yl)pyridin-2-yl)-1H-imidazol-2(3H)-one] | < 2 |

Continued, values first:

| IC50 [nM] | SMILES |
| --- | --- |
| 20.1 to 200 | COc1cccc(CN2CCN(c3cc(F)c(-c4cn[nH]c4)cc3F)C2=O)c1 [Example 447, 1-(2,5-difluoro-4-(1H-pyrazol-4-yl)phenyl)-3-(3-methoxybenzyl)imidazolidin-2-one] |
| 20.1 to 200 | COc1cc(F)cc(CN2CCN(c3cc(F)c(-c4cn[nH]c4)cc3F)C2=O)c1 [Example 448, 1-(2,5-difluoro-4-(1H-pyrazol-4-yl)phenyl)-3-(3-fluoro-5-methoxybenzyl)imidazolidin-2-one] |
| 2.1 to 20 | COc1cc(CN2C(=O)N(c3ccc(-c4cn[nH]c4)cn3)CC2(C)C)ccc1F [Example 450, 1-(5-(1H-pyrazol-4-yl)pyridin-2-yl)-3-(4-fluoro-3-methoxybenzyl)-4,4-dimethylimidazolidin-2-one] |
| 200 to 2000 | CCc1cc(-n2ccn(Cc3cccc(OCC4CC4)c3)c2=O)ccc1-c1cn[nH]c1 [Example 455, 1-(3-(cyclopropylmethoxy)benzyl)-3-(3-ethyl-4-(1H-pyrazol-4-yl)phenyl)-1H-imidazol-2(3H)-one] |
| 20.1 to 200 | COc1cccc([C@H](C)N2CCN(c3ccc(-c4cn[nH]c4)cc3)C2=O)c1 [Example 456, (S)-1-(4-(1H-pyrazol-4-yl)phenyl)-3-(1-(3-methoxyphenyl)ethyl)imidazolidin-2-one] |
| 2.1 to 20 | COc1cc(F)cc(CN2C(=O)N(c3ccc(-c4cn[nH]c4)cn3)CC2(C)C)c1 [Example 458, 1-(5-(1H-pyrazol-4-yl)pyridin-2-yl)-3-(3-fluoro-5-methoxybenzyl)-4,4-dimethylimidazolidin-2-one] |
| 2.1 to 20 | COc1cccc(C(CO)N2CCN(c3ccc(-c4cn[nH]c4)c(F)c3)C2=O)c1 (stereo not shown) [Example 463, 1-(3-fluoro-4-(1H-pyrazol-4-yl)phenyl)-3-(2-hydroxy-1-(3-methoxyphenyl)ethyl)imidazolidin-2-one] |
| 20.1 to 200 | CCOc1cc(N2CCN(Cc3cccc(OC)c3)C2=O)ncc1-c1cn[nH]c1 [Example 473, 1-(4-ethoxy-5-(1H-pyrazol-4-yl)pyridin-2-yl)-3-(3-methoxybenzyl)imidazolidin-2-one] |
| 2.1 to 20 | COc1cccc(CN2C(=O)N(c3ccc(-c4cn[nH]c4)cn3)C[C@@H]2CO)c1 [Example 474, (R)-1-(5-(1H-pyrazol-4-yl)pyridin-2-yl)-4-(hydroxymethyl)-3-(3-methoxybenzyl)imidazolidin-2-one] |
| < 2 | COc1cc(Cn2ccn(-c3ccc(-c4cn[nH]c4)c(OC)n3)c2=O)ccc1F [Example 477, 1-(4-fluoro-3-methoxybenzyl)-3-(6-methoxy-5-(1H-pyrazol-4-yl)pyridin-2-yl)-1H-imidazol-2(3H)-one] |
